In US20100286028A1, “USE OF A PEPTIDE AS A THERAPEUTIC AGENT” (priority 2007, published 2010):
No end group written: not given here.

Assays:
[1] = test system: HIV-1IIIB; experiment: HIV-1 antiviral assay in CEM-SS cells; conditions: peptides 10 micrograms per ml; CEM-SS cells plus HIV-1IIIB; MTS readout 6 days post-infection
[2] = test system: HCMV strain AD169; experiment: HCMV plaque formation assay in MRC-5 cells; conditions: peptides 10 micrograms per ml, 7-10 days
[3] = test system: murine spleen cells; experiment: Th1/Th2 cytokine profiling assay; type: cell-based, Balb/c mice; conditions: 10 micrograms per ml, Ovalbumin-restimulated spleen cells, 72 hours
Excerpt: The Balb/c mice (originated in 1923, it is a popular strain and is used in many different research disciplines. Also classified as an inbred from the production of 20 or more successive brother-sister matings, the Balb/c mouse is albino and small in size) were immunized on Days 1, 15, and 29 with Ovalbumin (Ovalbumin is the main protein found in egg white, commonly used to stimulate an immunological reaction in test animals) in PBS (5 micrograms/injection). On day 50, spleens of the mice were harvested (3 weeks after last boost with Ovalbumin). […] Thereafter, additional Ovalbumin was added to the cells at 10 micrograms/ml for in vitro restimulation of the cells. 72 hours later, cell supernatants were harvested and assayed using the Becton Dickinson Mouse Th1/Th2 Cytokine CBA Kit. This kit can be used to measure Interleukin-2 (IL-2), Interleukin-4 (IL-4), Interleukin-5 (IL-5), Interferon-γ (IFN-γ), and Tumor Necrosis Factor-a (TNF-a) protein levels in a single sample.

[4] = test system: HUVEC; experiment: Endothelial tube formation assay; type: cell-based, human; conditions: 10 micrograms per ml, 20 hours, average tubule length, combination peptide 1:peptide 2 1.10 mole:0.90 mole
Excerpt: Positive control was vehicle only.

[5] = test system: Primary Human endothelial cells (HUVEC); experiment: Endothelial cell migration assay; type: cell-based; conditions: 10 micrograms per ml, 22 hours, combination peptide 1:peptide 2 1.10 mole:0.90 mole
[6] = test system: Streptococcus pneumoniae; experiment: Streptococcus pneumoniae assay; type: cell-based; conditions: 10 micrograms per ml; 5x10^5 CFU/mL; read visually; combination 0.95 mole peptide 1 and 1.05 mole peptide 2 and all other molar ratios from 1:100 to 100:1
[7] = test system: hepatitis B virus (HBV) ayw strain; experiment: HBV experimental assay system (HepG2-2.2.15, TaqMan PCR of secreted HBV DNA); type: cell-based; conditions: 10 micrograms per ml, six days, HBV DNA by TaqMan PCR, combination 0.95 mole peptide 1 and 1.05 mole peptide 2
[8] = combination 0.95 mole peptide 1 and 1.05 mole peptide 2

Cc1cn([C@H]2C[C@H](N=[N+]=[N-])[C@@H](CO)O2)c(=O)[nH]c1=O [AZT]
inhibition of HIV-1 activity on tested T-cells [1]: expected levels of antiviral activity

Nc1nc(O)c2ncn(COC(CO)CO)c2n1 [Ganciclovir, reference compound]
inhibition of HCMV plaque formation as compared to the virus control experiment [2]: expected levels of antiviral activity

CC(C)(C)NC(=O)[C@@H]1CN(Cc2cccnc2)CCN1C[C@@H](O)C[C@@H](Cc1ccccc1)C(=O)N[C@H]1c2ccccc2C[C@H]1O [indinavir]
inhibition of HIV-1 activity on tested T-cells [1]: expected levels of antiviral activity

Cys-Tyr-Phe-Gln-Asn-Cys-Pro-Arg-Gly-NH2 (CYFQNCPRG-NH2; ends and bridges not checked) [Peptide 2]
inhibition of HCMV plaque formation as compared to the virus control experiment [2]: did not inhibit
production of IL-4 in murine spleen cells, suppressed by [3]: 59.6%
change of the production of IL-5 in murine spleen cells [3, 8]: did not significantly change
production of IFN-γ in murine spleen cells, induced by [3, 8]: did not significantly change
production of IL-2 in murine spleen cells, induced by [3, 8]: did not significantly change
production of TNF-alpha in murine spleen cells, induced by [3, 8]: 24.9%
increase of the tube formation of human endothelial cells [4]: 4%
inhibition of the migration of human endothelial cells [5]: 5%
inhibition of the growth of Streptococcus pneumoniae [6]: 100%
inhibition of HBV replication as compared to the virus control infection [7]: 26.3%

PALPEDGGSGAFPPGHFKDPKRLY [Peptide 1]
inhibition of HCMV plaque formation as compared to the virus control experiment [2]: did not inhibit
change of the production of IL-5 in murine spleen cells [3, 8]: did not significantly change
production of IFN-γ in murine spleen cells, induced by [3, 8]: 30.3%
production of IL-2 in murine spleen cells, induced by [3, 8]: 77.4%
production of IL-4 in murine spleen cells, induced by [3, 8]: 123.9%
production of TNF-alpha in murine spleen cells, induced by [3, 8]: 30.0%
increase of the tube formation of human endothelial cells [4]: 2%
inhibition of the migration of human endothelial cells [5]: 17%
inhibition of the growth of Streptococcus pneumoniae [6]: 100%
inhibition of HBV replication as compared to the virus control infection [7]: 24.3%
